The results in this text go back to patent publication US20190330224A1, “ACC INHIBITORS AND USES THEREOF” (Gilead Apollo, LLC, priority 2015, published 2019).

Structures are written as SMILES. ≈ marks a conversion by molar mass, not a printed value.

Assay [1] concerns Botrtyis cinerea (Bc). The assay is described as follows: Growth inhibition assay of fungal pathogens, Bc. As to conditions: 48 hours; read-out: Concentration at 90% Inhibition, Bc. In kind it is cell-based. An outline of the steps:
(§1)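 Spores in 17% V8 medium exposed to compound at final 50, 10, 2 ppm or 2, 0.4, 0.08 ppm, with 2% DMSO. OD600 and visual ratings taken at 24 and 48 h, with blank subtracted. Percent growth inhibition derived from 48 h readings relative to 2% DMSO control.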

For assay [2], the system named is C. albicans ATCC 90028. Nature of the assay: Anti-Fungal Activity Assay (broth microtiter MIC), C. albicans. The format is cell-based, Candida albicans. As to conditions: Candida albicans, ATCC90028, 48 h, 3 replicates; MIC recorded at 48 h; read-out: MIC C. albicans ATCC 90028. An outline of the steps: (§2)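 Broth microdilution per CLSI M27-A3 in RPMI 1640+MOPS, inoculum from overnight Sabouraud dextrose agar colonies at 35° C; compounds from 1 mg/mL DMSO stocks. MIC read visually against growth control at 48 h, with an added 24 h reading for soraphen.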

Assay [3] has as its system Fusarium virguliforme (Fv). The assay is described as follows: Growth inhibition assay of fungal pathogens, Fv. In kind it is cell-based. As to conditions: 48 hours, read-out: Concentration at 90% Inhibition, Fv. An outline of the steps: as §1
The conditions of assay [4]: compound concentration 10 ppm, foliar spray, evaluated 7 days after inoculation.
Assay [5] deals with Collectotrichum graminicola (Cg). The assay is described as follows: Growth inhibition assay of fungal pathogens, Cg. The format is cell-based. As to conditions: 48 hours; read-out: Concentration at 90% Inhibition, Cg. Put shortly: as §1
Assay [6] relates to Blumeria graminis f sp. hordei. The assay is described as follows: Foliar protection test, barley powdery mildew control. The format is in vivo, Blumeria graminis f sp. hordei on Hordeum vulgare cv. Perry. As to conditions: 168 h, compound concentration 50 ppm, foliar spray, evaluated 7 days after inoculation, read-out: Barley Powdery Mildew Control at 50 ppm. Put shortly:
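Barley cv. Perry at first true leaf (6 days) sprayed to wetness on both leaf sides with compound in 5% acetone/0.005% Tween 80, typically at 200, 100, 50, 10 or 2 ppm. Inoculated 24 h later by shaking spores from colonized plants; kept at 20-22 °C, 70% RH. Mildew colonization scored 7 days later as percent control.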

Assay [7] relates to Diplodia maydis (Dm). The assay is described as follows: Growth inhibition assay of fungal pathogens, Dm. As to conditions: Stenocarpella maydis; 48 hours; read-out: Concentration at 90% Inhibition, Dm. The format is cell-based. An outline of the steps:
as §1

Assay [8] has as its system Septoria tritici (St). Nature of the assay: Growth inhibition assay of fungal pathogens, St. In kind it is cell-based. As to conditions: Zymoseptoria tritici; 48 hours; read-out: Concentration at 90% Inhibition, St. Put shortly: as §1
Assay [9] deals with Fungal ACC2 (UniProt Q00955). As to conditions: read-out: Fungal ACC2 (IC50, in vitro ACC2 inhibition).
For assay [10], the target named is Human ACC2 (Homo sapiens, UniProt O00763). The assay is described as follows: In vitro ACC2 inhibition assay (ADP-Glo), human ACC2. In kind it is biochemical. As to conditions: 5 nM ACC2, 20 μM ATP, 20 μM acetyl-CoA.
Assay [11] concerns C. krusei ATCC 6258. The assay is described as follows: Anti-Fungal Activity Assay (broth microtiter MIC), C. krusei. In kind it is cell-based, Candida krusei. As to conditions: Pichia kudriavzevii, ATCC6258, 48 h, 3 replicates; MIC recorded at 48 h; read-out: MIC C. krusei ATCC 6258. An outline of the steps: as §2
Assay [12] has as its system C. parapsilosis ATCC 22019. Nature of the assay: Anti-Fungal Activity Assay (broth microtiter MIC), C. parapsilosis. In kind it is cell-based, Candida parapsilosis. As to conditions: Lodderomyces parapsilosis, ATCC22019, 48 h, 3 replicates; MIC recorded at 48 h; read-out: MIC C. parapsilosis ATCC 22019. An outline of the steps:
as §2

Assay [13] concerns Phytophthora capsici (Pc). The assay is described as follows: Growth inhibition assay of fungal pathogens, Pc. The format is cell-based. As to conditions: 48 hours, read-out: Concentration at 90% Inhibition, Pc. An outline of the steps: as §1
Assay [14] relates to Rhizoctonia solani (Rs). Nature of the assay: Growth inhibition assay of fungal pathogens, Rs. In kind it is cell-based. As to conditions: 48 hours, read-out: Concentration at 90% Inhibition, Rs.
Assay [15] concerns Fusarium moniliforme (Fm). The assay is described as follows: Growth inhibition assay of fungal pathogens, Fm. The format is cell-based. As to conditions: Fusarium verticillioides; 48 hours; read-out: Concentration at 90% Inhibition, Fm. Put shortly: as §1

Sequence of Fungal ACC2 (Q00955 whole entry): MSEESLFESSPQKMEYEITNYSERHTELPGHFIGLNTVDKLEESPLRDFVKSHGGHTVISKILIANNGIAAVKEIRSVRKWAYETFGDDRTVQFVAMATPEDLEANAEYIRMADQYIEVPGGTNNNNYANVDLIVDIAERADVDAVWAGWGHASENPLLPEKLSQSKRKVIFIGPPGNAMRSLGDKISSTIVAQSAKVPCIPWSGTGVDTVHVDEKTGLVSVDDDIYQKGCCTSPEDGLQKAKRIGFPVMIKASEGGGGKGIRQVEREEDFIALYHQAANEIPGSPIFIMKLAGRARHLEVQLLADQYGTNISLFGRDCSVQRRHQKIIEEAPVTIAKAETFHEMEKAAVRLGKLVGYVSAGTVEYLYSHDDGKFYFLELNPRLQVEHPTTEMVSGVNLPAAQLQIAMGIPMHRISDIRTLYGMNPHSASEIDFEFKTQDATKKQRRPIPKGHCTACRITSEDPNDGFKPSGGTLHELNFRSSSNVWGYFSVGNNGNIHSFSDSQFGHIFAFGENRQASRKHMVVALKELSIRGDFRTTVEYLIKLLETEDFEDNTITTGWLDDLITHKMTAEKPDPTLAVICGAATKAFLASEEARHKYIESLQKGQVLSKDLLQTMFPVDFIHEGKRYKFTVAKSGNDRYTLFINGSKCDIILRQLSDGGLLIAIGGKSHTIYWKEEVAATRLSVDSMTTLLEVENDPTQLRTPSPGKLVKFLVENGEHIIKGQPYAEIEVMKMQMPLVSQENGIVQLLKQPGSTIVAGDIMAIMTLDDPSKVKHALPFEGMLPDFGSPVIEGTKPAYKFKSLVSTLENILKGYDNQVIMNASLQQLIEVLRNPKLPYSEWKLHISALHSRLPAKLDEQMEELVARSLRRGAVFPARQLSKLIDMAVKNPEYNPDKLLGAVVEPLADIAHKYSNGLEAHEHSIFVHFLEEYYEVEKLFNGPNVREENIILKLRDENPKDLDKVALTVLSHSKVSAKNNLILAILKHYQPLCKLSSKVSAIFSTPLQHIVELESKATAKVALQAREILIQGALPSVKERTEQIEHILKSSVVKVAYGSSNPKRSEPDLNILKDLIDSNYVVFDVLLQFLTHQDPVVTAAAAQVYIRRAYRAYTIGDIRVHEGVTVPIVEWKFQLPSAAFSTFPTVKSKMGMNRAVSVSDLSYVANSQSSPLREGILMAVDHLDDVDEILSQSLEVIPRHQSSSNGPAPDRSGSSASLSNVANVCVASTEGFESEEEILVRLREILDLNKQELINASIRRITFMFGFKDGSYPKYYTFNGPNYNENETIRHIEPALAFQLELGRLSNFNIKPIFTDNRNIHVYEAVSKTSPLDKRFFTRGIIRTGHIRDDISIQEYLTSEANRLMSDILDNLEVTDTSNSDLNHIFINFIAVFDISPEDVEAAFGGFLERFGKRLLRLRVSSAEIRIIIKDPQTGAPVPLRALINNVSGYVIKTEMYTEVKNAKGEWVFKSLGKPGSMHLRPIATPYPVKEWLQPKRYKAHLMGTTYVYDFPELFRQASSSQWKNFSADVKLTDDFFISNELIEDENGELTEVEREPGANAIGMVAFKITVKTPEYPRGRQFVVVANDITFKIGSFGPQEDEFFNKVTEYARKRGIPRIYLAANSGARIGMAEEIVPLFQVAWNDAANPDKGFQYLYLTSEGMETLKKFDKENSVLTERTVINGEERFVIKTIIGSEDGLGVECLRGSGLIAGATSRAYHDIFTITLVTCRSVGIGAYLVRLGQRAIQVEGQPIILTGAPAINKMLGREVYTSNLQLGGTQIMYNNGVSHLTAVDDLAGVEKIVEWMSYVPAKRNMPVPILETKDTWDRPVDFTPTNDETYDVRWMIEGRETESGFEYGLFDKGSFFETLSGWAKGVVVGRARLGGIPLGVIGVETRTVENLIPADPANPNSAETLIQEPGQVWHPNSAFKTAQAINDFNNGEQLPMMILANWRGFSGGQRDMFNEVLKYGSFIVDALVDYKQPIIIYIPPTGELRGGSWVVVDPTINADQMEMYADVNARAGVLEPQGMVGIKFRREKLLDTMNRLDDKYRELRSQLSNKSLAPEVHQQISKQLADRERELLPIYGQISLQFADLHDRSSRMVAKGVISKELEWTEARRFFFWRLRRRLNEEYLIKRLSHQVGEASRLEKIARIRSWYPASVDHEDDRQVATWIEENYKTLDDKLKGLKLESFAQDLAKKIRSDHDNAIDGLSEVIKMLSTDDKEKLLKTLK
Sequence of Human ACC2 (O00763 whole entry): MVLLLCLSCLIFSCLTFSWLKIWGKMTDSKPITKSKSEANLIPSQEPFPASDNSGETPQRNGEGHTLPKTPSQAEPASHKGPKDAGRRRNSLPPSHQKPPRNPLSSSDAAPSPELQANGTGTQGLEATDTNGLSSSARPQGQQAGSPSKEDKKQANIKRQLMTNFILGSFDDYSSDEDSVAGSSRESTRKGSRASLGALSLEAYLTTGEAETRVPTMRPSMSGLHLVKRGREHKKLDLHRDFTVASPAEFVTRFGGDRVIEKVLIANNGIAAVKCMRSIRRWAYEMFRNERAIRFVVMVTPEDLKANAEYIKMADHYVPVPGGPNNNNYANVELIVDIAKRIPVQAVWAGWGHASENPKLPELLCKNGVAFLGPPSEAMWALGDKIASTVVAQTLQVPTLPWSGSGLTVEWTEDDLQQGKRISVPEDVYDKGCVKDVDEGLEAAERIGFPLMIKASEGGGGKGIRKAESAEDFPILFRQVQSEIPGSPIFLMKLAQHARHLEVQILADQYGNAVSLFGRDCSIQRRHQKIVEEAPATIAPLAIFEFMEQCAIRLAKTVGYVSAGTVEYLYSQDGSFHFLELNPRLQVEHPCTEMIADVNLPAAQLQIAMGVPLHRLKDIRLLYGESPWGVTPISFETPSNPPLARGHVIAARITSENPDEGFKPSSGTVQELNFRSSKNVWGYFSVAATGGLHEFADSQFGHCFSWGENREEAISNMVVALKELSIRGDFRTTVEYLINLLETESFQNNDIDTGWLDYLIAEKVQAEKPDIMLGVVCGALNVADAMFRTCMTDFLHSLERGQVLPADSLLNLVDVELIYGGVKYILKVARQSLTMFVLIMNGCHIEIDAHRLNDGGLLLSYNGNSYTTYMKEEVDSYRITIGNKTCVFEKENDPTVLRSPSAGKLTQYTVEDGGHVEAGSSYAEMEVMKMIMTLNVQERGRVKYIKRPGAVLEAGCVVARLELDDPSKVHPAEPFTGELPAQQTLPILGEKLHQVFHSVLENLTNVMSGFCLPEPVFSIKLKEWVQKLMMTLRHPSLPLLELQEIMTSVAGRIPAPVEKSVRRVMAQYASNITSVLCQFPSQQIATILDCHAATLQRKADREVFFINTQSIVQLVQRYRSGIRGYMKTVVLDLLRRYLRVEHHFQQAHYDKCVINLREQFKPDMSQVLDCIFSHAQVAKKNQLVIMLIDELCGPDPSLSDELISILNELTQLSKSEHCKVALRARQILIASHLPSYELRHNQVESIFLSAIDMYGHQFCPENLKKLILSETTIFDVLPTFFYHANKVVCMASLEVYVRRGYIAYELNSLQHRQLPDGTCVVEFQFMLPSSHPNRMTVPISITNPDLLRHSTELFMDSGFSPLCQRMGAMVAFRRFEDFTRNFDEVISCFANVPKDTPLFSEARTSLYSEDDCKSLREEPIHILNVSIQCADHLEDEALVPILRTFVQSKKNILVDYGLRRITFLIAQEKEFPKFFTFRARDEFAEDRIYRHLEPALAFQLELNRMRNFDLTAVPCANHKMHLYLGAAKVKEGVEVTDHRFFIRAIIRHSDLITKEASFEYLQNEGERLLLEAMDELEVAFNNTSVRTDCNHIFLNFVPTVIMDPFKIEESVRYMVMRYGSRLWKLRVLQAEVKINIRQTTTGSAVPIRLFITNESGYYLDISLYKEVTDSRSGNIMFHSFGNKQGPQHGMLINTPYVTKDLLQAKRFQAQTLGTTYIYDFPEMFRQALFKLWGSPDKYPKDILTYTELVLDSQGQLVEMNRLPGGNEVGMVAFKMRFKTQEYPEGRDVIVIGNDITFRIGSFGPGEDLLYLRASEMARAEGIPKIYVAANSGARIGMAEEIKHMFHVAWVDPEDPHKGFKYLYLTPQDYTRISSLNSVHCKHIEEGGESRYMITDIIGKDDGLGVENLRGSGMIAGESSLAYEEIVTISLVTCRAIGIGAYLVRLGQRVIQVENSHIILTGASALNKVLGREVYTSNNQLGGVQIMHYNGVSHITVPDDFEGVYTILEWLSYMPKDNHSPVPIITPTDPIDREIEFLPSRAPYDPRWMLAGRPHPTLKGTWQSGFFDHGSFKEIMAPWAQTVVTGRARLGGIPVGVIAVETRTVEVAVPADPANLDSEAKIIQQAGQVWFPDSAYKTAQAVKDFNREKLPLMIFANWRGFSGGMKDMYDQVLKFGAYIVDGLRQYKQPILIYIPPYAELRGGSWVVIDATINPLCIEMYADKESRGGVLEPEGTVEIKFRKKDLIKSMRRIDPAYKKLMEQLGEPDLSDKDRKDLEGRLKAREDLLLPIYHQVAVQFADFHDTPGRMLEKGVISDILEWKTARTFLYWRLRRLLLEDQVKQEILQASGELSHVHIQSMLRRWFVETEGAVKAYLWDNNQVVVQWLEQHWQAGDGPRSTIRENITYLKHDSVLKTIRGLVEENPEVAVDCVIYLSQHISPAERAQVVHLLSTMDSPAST

For `COCCO[C@@H](Cn1c(=O)n([C@@H]2CCCNC2=O)c(=O)c2c(C)c(-n3nccn3)sc21)c1cc(F)ccc1OC` [Compound I-30, 1-((R)-2-(5-fluoro-2-methoxyphenyl)-2-(2-methoxy-ethoxy)ethyl)-5-methyl-3-((R)-2-oxopiperidin-3-yl)-6-(2H-1,2,3-triazol-2-yl)thieno[2,3-d]pyrimidine-2,4(1H,3H)-dione], the IC90 in assay [1] is 10 µg/mL (≈ 17.5 µM); in assay [3], more than 50 µg/mL; in [5], more than 50 µg/mL; in [7], more than 50 µg/mL; in [8], more than 50 µg/mL; in assay [13] it was more than 50 µg/mL. Besides, the IC90 in assay [14] and in [15] was more than 50 µg/mL each time. Besides, the MIC in [2], in assay [11] and in [12] was 2.1 to 4 µg/mL (≈ 3.67 to 6.99 µM) in each case. In addition, the “Barley Powdery Mildew Control at 10 ppm” value in assay [4] is “D (provided a compound having <25% control of barley powdery mildew)”. In addition, the pest or weed control at 50 ppm in [6] lay within 50 to 69%. The IC50 in assay [9] fell in the range of 0.7 to 2 nM; in assay [10], 10 to 100 nM.

For `COc1ccc(F)cc1[C@H](Cn1c(=O)n([C@@H]2CCCN(C)C2=O)c(=O)c2c(C)c(-n3nccn3)sc21)OCCO` [Compound I-73, 1-((R)-2-(5-fluoro-2-methoxyphenyl)-2-(2-hydroxy-ethoxy)ethyl)-5-methyl-3-((R)-1-methyl-2-oxopiperidin-3-yl)-6-(2H-1,2,3-triazol-2-yl)thieno[2,3-d]pyrimidine-2,4(1H,3H)-dione], the IC90 was 10 µg/mL (≈ 17.5 µM) in [1]; 2 µg/mL (≈ 3.49 µM) in [3]; 2 µg/mL (≈ 3.49 µM) in assay [5]; 2 µg/mL (≈ 3.49 µM) in assay [7]; more than 50 µg/mL in [8]; more than 50 µg/mL in assay [13]. The IC90 in assay [14] and in [15] was 2 µg/mL (≈ 3.49 µM) each time. The MIC in assay [2], in assay [11] and in assay [12] was 2.1 to 4 µg/mL (≈ 3.67 to 6.99 µM) throughout. In assay [4], the “Barley Powdery Mildew Control at 10 ppm” value was “D (provided a compound having <25% control of barley powdery mildew)”. Besides, in assay [6], the pest or weed control at 50 ppm is 50 to 69%. For the same compound, the IC50 lay in the range of 0.7 to 2 nM in assay [9] and 10 to 100 nM in assay [10].

Consider `COc1ccc(F)cc1[C@H](Cn1c(=O)n([C@@H]2CCCNC2=O)c(=O)c2c(C)c(-n3nccn3)sc21)OCCO` [Compound I-71, 1-((R)-2-(5-fluoro-2-methoxyphenyl)-2-(2-hydroxy-ethoxy)ethyl)-5-methyl-3-((R)-2-oxopiperidin-3-yl)-6-(2H-1,2,3-triazol-2-yl)thieno[2,3-d]pyrimidine-2,4(1H,3H)-dione], for which the IC90 was 2 µg/mL (≈ 3.58 µM) in [1]; 2 µg/mL (≈ 3.58 µM) in assay [3]; 10 µg/mL (≈ 17.9 µM) in assay [5]; more than 50 µg/mL in [7]; more than 50 µg/mL in assay [8]; more than 50 µg/mL in [13]. Further, the IC90 in assay [14] and in assay [15] was 2 µg/mL (≈ 3.58 µM) throughout. Moreover, the MIC in assay [2], in assay [11] and in assay [12] was 2.1 to 4 µg/mL (≈ 3.76 to 7.16 µM) each time. Besides, in assay [4], the “Barley Powdery Mildew Control at 10 ppm” value is given as “D (provided a compound having <25% control of barley powdery mildew)”. The pest or weed control at 50 ppm in [6] lay within 50 to 69%. Further, the IC50 in [9] is 0.7 to 2 nM; in assay [10] it was 2 to 10 nM.

Turning to `COCCO[C@@H](Cn1c(=O)n([C@H]2CCCN(C)C2=O)c(=O)c2c(C)c(-n3cccn3)sc21)c1cc(F)ccc1OC` [Compound I-47, 1-((R)-2-(5-fluoro-2-methoxyphenyl)-2-(2-methoxy-ethoxy)ethyl)-5-methyl-3-((S)-1-methyl-2-oxopiperidin-3-yl)-6-(I H-pyrazol-1-yl)thieno[2,3-d]pyrimidine-2,4(1H,3H)-dione], the IC90 in assay [1], in [3], in assay [5], in assay [7], in assay [8] and in assay [13] was more than 50 µg/mL throughout. Further, the IC90 in assay [14] and in [15] was more than 50 µg/mL throughout. The MIC in assay [2], in assay [11] and in [12] was 2.1 to 4 µg/mL (≈ 3.59 to 6.83 µM) each time. Besides, the “Barley Powdery Mildew Control at 10 ppm” value in assay [4] was “D (provided a compound having <25% control of barley powdery mildew)”. Further, the pest or weed control at 50 ppm in assay [6] is 50 to 69%. Besides, the IC50 in assay [9] lay in the range of 2 to 10 nM; in assay [10], 100 to 1000 nM.

Regarding `COc1ccc(F)cc1[C@H](Cn1c(=O)n([C@H]2CCCNC2=O)c(=O)c2c(C)c(-n3nccn3)sc21)OCCO` [Compound I-70, 1-((R)-2-(5-fluoro-2-methoxyphenyl)-2-(2-hydroxy-ethoxy)ethyl)-5-methyl-3-((S)-2-oxopiperidin-3-yl)-6-(2H-1,2,3-triazol-2-yl)thieno[2,3-d]pyrimidine-2,4(1H,3H)-dione], the IC90 was 2 µg/mL (≈ 3.58 µM) in assay [1]; 2 µg/mL (≈ 3.58 µM) in assay [3]; 10 µg/mL (≈ 17.9 µM) in assay [5]; more than 50 µg/mL in assay [7]; more than 50 µg/mL in assay [8]; more than 50 µg/mL in [13]. The IC90 in assay [14] is 10 µg/mL (≈ 17.9 µM); in assay [15] it was 2 µg/mL (≈ 3.58 µM). Also, the minimum inhibitory concentration (MIC) in [2], in assay [11] and in assay [12] was 2.1 to 4 µg/mL (≈ 3.76 to 7.16 µM) throughout. In addition, the “Barley Powdery Mildew Control at 10 ppm” value in assay [4] was “D (provided a compound having <25% control of barley powdery mildew)”. The pest or weed control at 50 ppm in assay [6] lay within 50 to 69%. Besides, the IC50 in assay [9] was in the range of 0.7 to 2 nM; in assay [10], 10 to 100 nM.

For `COCCO[C@@H](Cn1c(=O)n([C@@H]2CCN(C)C2=O)c(=O)c2c(C)c(-n3cccn3)sc21)c1cc(F)ccc1OC` [Compound I-44, 1-((R)-2-(5-fluoro-2-methoxyphenyl)-2-(2-methoxy-ethoxy)ethyl)-5-methyl-3-((R)-1-methyl-2-oxopyrrolidin-3-yl)-6-(1H-pyrazol-1-yl)thieno[2,3-d]pyrimidine-2,4(1H,3H)-dione], the IC90 in [1], in assay [3], in [5], in assay [7], in assay [8] and in assay [13] was more than 50 µg/mL each time. The IC90 is more than 50 µg/mL in assay [14] and 10 µg/mL (≈ 17.5 µM) in [15]. Further, the MIC in [2], in [11] and in assay [12] was 2.1 to 4 µg/mL (≈ 3.67 to 7 µM) in each case. In assay [4], the “Barley Powdery Mildew Control at 10 ppm” value was “D (provided a compound having <25% control of barley powdery mildew)”. In addition, in assay [6], the pest or weed control at 50 ppm lay in the range of 70 to 84%. Moreover, the IC50 in assay [9] lay in the range of 2 to 10 nM; in [10], 10 to 100 nM.

As for `COCCO[C@@H](Cn1c(=O)n([C@@H]2CCCNC2=O)c(=O)c2c(C)c(-n3cccn3)sc21)c1cc(F)ccc1OC` [Compound I-46, 1-((R)-2-(5-fluoro-2-methoxyphenyl)-22-(2-methoxy-ethoxy)ethyl)-5-methyl-3-((R)-2-oxopiperidin-3-yl)-6-(I H-pyrazol-1-yl)thieno[2,3-d]pyrimidine-2,4(1H,3H)-dione], the IC90 in assay [1], in [3], in assay [5], in assay [7], in [8] and in assay [13] was more than 50 µg/mL each time. Further, the IC90 in assay [14] and in assay [15] was more than 50 µg/mL each time. In addition, the MIC in assay [2], in assay [11] and in assay [12] was 2.1 to 4 µg/mL (≈ 3.67 to 7 µM) throughout. In addition, the “Barley Powdery Mildew Control at 10 ppm” value in assay [4] was “D (provided a compound having <25% control of barley powdery mildew)”. In assay [6], the pest or weed control at 50 ppm lay within 50 to 69%. Besides, the values for the IC50 in [9] and in assay [10] were 10 to 100 nM and 100 to 1000 nM, respectively.
